According to patent publication EP1234508A1, “Antiprotozoal methods, compositions and feedstuffs” (UNIVERSITEIT GENT, priority 2001, dated 2002):

Assay: Onset of egg laying and egg weight in hens treated via drinking water, Example 3
Format: in vivo
Procedure: The end of the development of the reproductive organ of laying hens starts on the age of 15 weeks and continues during 7 weeks. 10 laying hens were treated with L-arginine via drinking water from the age of 15 weeks till the age of 21 weeks and 10 laying hens were used as a control group. L-arginine was dosed at 15 mg per kg weight per day. L-arginine free base or a L-arginine salt such as hydrochloride may be given daily in a dose of about 5 - 200 mg up to 5 to about 1000 mg per kg bodyweight per day. Light schemes were taken into account: 8 hours light at the age of 15 and 16 weeks old, 9 hours at 17 weeks, 10 hours at 18 weeks, 11 hours at 19 weeks, 12 hours at 20 weeks and 13 hours at 21 weeks old. The treatment with L-arginine was started on the age of 15 weeks. After 40 days of treatment, 3 of 10 chickens treated with L-arginine started laying while one chicken of the control group started laying four days later (Fig. 5). It is unexpected that the onset of egg-laying is earlier than in the control group which is a commercially important aspect of the present invention. The average weight of the eggs (number of eggs ≥ 3) was above 50 g after 46 days in the treated group while in the control group after 54 days the average weight of at least 3 eggs was above 50 g (Fig 6). Again this improvement is unexpected and is of commercial value.

Q: Which results are given for `N=C(N)NCCCC(N)C(=O)O` [L-arginine, 2-amino-5-guanidinovaleric acid]?
A: chickens started laying (after 40 days of treatment, 15 mg per kg weight per day via drinking water from the age of 15 weeks, Fig. 5): 3 of 10; average weight of the eggs (number of eggs ≥ 3) (after 46 days in the treated group, 15 mg per kg weight per day via drinking water, Fig. 6): above 50 g
